According to patent US12060379B2, “Plasmalogen derivatives” (Institute of Rheological Functions of Food, priority 2018, dated 2024):

Assays:
[1] = test system: ERK (ERK1/2) phosphorylation in mouse neuroblastoma derived NEURO2A cell; assay: ERK (ERK1/2) phosphorylation, Western Blotting, NEURO2A cells; assay type: cell-based; conditions: 5 μg/ml, 30 minutes, compared with s-Pls (FIG. 1)
Experimental: Neuronal cell lines (mouse neuroblastoma derived NEURO2A cell and human neuroblastoma derived SH-SY5Y cell) were cultivated in DMEM medium containing 10% FBS (fetal bovine serum) for 24 hours. […] At this stage, the same amount of protein (50 μg of protein extracts) was subjected to an analysis to compare phosphorylation of ERK (ERK ½) (p-ERK).
Neuronal cell lines (mouse neuroblastoma derived NEURO2A cell) were cultivated in DMEM medium containing 10% FBS (fetal bovine serum) for 24 hours. […] At this stage, the same amount of protein (50 μg of protein extracts) was subjected to an analysis to compare phosphorylation of ERK (ERK %) (p-ERK).

[2] = test system: ERK (ERK1/2) phosphorylation in human neuroblastoma derived SH-SY5Y cell; assay: ERK (ERK1/2) phosphorylation, Western Blotting, SH-SY5Y cells; assay type: cell-based; conditions: 5 μg/ml, 30 minutes, compared with s-Pls (FIG. 1)
Experimental: By using a neuronal cell line, a study was performed with respect to enhanced phosphorylation activities of ERK (ERK1/2) with compounds according to the present invention.
Neuronal cell lines (mouse neuroblastoma derived NEURO2A cell and human neuroblastoma derived SH-SY5Y cell) were cultivated in DMEM medium containing 10% FBS (fetal bovine serum) for 24 hours. Subsequently, they were cultivated in DMEM medium containing 2% FBS for overnight (18 hours), which were then processed with 5 μg/ml of s-Pls (scallop-derived Pls), Compound REO-002 according to the present invention, and Compound REO-003 according to the present invention for 30 minutes respectively, and cells were subjected to Western Blotting assay. At this stage, the same amount of protein (50 μg of protein extracts) was subjected to an analysis to compare phosphorylation of ERK (ERK ½) (p-ERK).
Neuronal cell lines (human neuroblastoma derived SH-SY5Y cell) were cultivated in DMEM medium containing 10% FBS (fetal bovine serum) for 24 hours. Subsequently, they were cultivated in DMEM medium containing 2% FBS for overnight (18 hours), which were then processed with 1 μg/ml, 5 μg/ml of Compounds REO-004-007 according to the present invention for 30 minutes respectively, and cells were subjected to Western Blotting assay. […]

CC/C=C\C/C=C\C/C=C\C/C=C\C/C=C\C/C=C\CCC(=O)O[C@@H](COCCCCCOc1ccccc1)COP(=O)(O)OCCN [REO-003]
enhanced phosphorylation activities of ERK (ERK1/2) (p-ERK) [1]: exhibit enhanced phosphorylation activities of ERK (ERK½) equivalent to s-Pls | enhanced phosphorylation activities of ERK (ERK1/2) (p-ERK) [2]: exhibit enhanced phosphorylation activities of ERK (ERK½) equivalent to s-Pls
